Measured values taken from patent publication US20040014721A1, “Method for using tethered bis(polyhydroxyphenyls) and O-alkyl derivatives thereof in treating inflammatory conditions of the central nervous system” (Oklahoma Medical Research Foundation, priority 2002, published 2004).
Where two headings read alike, the source gives them in different places.

What was measured:
[1] = tested on: TNFα-Stimulated NO2^− Production in EOC-20 Cells; assay: TNFα-stimulated nitrite (NO2−) production in EOC-20 microglial cells, Griess assay; assay type: cell-based, mouse
Procedure: Cells were cultured in 24 well plates until confluent then treated with test agent, which was dissolved at 100× final concentration in dimethylsulfoxide (DMSO), or with vehicle only. Thirty minutes after treatment with test agent, cells were treated with 10 ng/mL recombinant mouse TNFα (Pharmingen, San Diego, Calif. USA). […] Each compound was tested at 100 μM, 20 μM, 4 μM, 0.8 μM and 0 μM in the presence of TNFα. Four wells of cells were used for each concentration of test agent.
(§1) Lower IC50 values indicate improved efficacy. FIG. 2 illustrates the principle of the measurement using NDGA as an example test agent. In order to determine viability, cell culture medium was replaced with phenol-free DMEM (Gibco) containing 20 μL/mL of MTT viability reagent (Promega). […] Control cells were taken to indicate 100% viability and intermediate values of MTT reduction were scaled to percentage of control. For each compound, an LD50 value was determined by extrapolation through sublethal concentrations. This value represents the concentration that reduced the MTT viability parameter by 50%.

EOC-20 cells = tested on: EOC-20 cells
Procedure: as §1

[2] = Table III, 10 ng/mL TNFα, 24 hr, by interpolation
[3] = Mus musculus, Table V, read-out: IC50
[4] = Table III, MTT viability, by extrapolation through sublethal concentrations
[5] = Table III, 10 ng/mL TNFα, 24 hr, by interpolation, read-out: IC50
[6] = Mus musculus, Table V, * obtained by linear extrapolation from points ≦100 μM, read-out: IC50
[7] = Table V, * obtained by linear extrapolation from points ≦100 μM
[8] = Mus musculus, 24 h, Table III, 10 ng/mL TNFα, 24 hr, by interpolation, read-out: IC50
[9] = Mus musculus, Table III, 10 ng/mL TNFα, 24 hr, by interpolation, read-out: IC50

COc1ccc(/C=C/c2cc(O)cc(O[C@@H]3O[C@H](CO)[C@@H](O)[C@H](O)[C@H]3O)c2)cc1O [Rhapontin (natural, rhubarb), Rhapontin]
IC50 [1, 2]: Inactive
LD50 (EOC-20 cells): nontoxic

CS(=O)(=O)Nc1ccc([N+](=O)[O-])cc1Oc1ccccc1 [Nimesulide]
IC50 [1, 3]: 20 µM

C[S+]([O-])c1ccc(-c2nc(-c3ccncc3)c(-c3ccc(F)cc3)[nH]2)cc1 (stereo not drawn) [SB203580]
LD50 (EOC-20 cells; [4]): 100 μm

N#CC(C#N)=Cc1ccc([N+](=O)[O-])c(O)c1 [Tyrphostin AG126]
IC50 [1, 5]: 18 µM
LD50 (EOC-20 cells; [4]): 150 μm

C[C@H](Cc1ccc(O)c(O)c1)[C@@H](C)Cc1ccc(O)c(O)c1 [NDGA (synthetic), nordihydroguaiaretic acid]
IC50 [1, 5]: 4 µM
IC50 ([1]; Table V, read-out: IC50): 4 µM

CCOc1ccc(CC(C)C(C)Cc2ccc(OCC)c(OCC)c2)cc1OCC (stereo not drawn) [Tetra-ethyl ether of NDGA (synthetic), Tetra-ethyl ether of NDGA]
IC50 ([1]; read-out: IC50): 0.8 µM

CS(=O)(=O)Nc1ccc([N+](=O)[O-])cc1OC1CCCCC1 [NS-398]
activity against TNFα-stimulated nitrite production [1]: essentially inactive
IC50 [1, 6]: 108 µM
LD50 (EOC-20 cells; [7]): 129* μM

O=c1c(-c2ccc(O)cc2)coc2cc(O)cc(O)c12 [4′,5,7-trihydroxy-isoflavone (genistein), 4′,5,7-trihydroxy-isoflavone]
IC50 [1, 8]: 46 µM
LD50 (EOC-20 cells; [4]): nontoxic

CC(C)(C)[N+]([O-])=Cc1cccc(O)c1 [3-OH-PBN]
IC50 [1, 2]: Inactive
LD50 (EOC-20 cells; [4]): nontoxic

O=C(O)CCCC[C@@H]1CCSS1 (racemic) [Lipoic acid]
IC50 [1, 2]: Inactive

O=c1oc2c(O)c(O)cc3c(=O)oc4c(O)c(O)cc1c4c23 [Ellagic acid]
IC50 [1, 8]: 110 µM
LD50 (EOC-20 cells): nontoxic

COc1cc(O)c2c(=O)c(-c3ccc(O)cc3)coc2c1 [4′,5-dihydroxy-7-methoxy-isoflavone]
IC50 [1, 9]: 120 µM
LD50 (EOC-20 cells; [4]): nontoxic

CN(C)[C@@H]1C(O)=C(C(N)=O)C(=O)[C@@]2(O)C(O)=C3C(=O)c4c(O)cccc4[C@@](C)(O)[C@H]3[C@H](O)[C@@H]12 [Oxyletracycline]
IC50 [1, 5]: 64 µM

C[C@@H]1C(=O)O[C@H]2[C@@H](O)[C@@]34[C@H]5C[C@@H](C(C)(C)C)[C@]36[C@@H](OC(=O)[C@@H]6O)O[C@@]4(C(=O)O5)[C@@]12O [gingkolide B]
IC50 [1, 2]: Inactive
LD50 (EOC-20 cells; [4]): nontoxic

CC(C)(C)[N+]([O-])=Cc1ccccc1O [2-OH-PBN]
IC50 [1, 2]: Inactive
LD50 (EOC-20 cells; [4]): nontoxic

O=c1cc(-c2ccc(O)cc2)oc2cc(O)cc(O)c12 [4′,5,7-trihydroxy-flavone (apigenin), 4′,5,7-trihydroxy-flavone]
IC50 [1, 8]: 55 µM
LD50 (EOC-20 cells; [4]): 87 μm

CC(C)(C)[N+]([O-])=Cc1ccc(O)cc1 [4-OH-PBN]
IC50 [1, 2]: Inactive
LD50 (EOC-20 cells; [4]): nontoxic

C[C@H](Cc1ccc(O)c(O)c1)[C@@H](C)Cc1ccc(O)c(O)c1 [NDGA (natural), nordihydroguaiaretic acid]
IC50 [1, 8]: 3.1 µM
IC50 [1, 3]: 3 µM

CC(=O)Oc1ccc(CC(C)C(C)Cc2ccc(OC(C)=O)c(OC(C)=O)c2)cc1OC(C)=O (stereo not drawn) [NDGA tetraacetyl ester]
IC50 ([1]; Table V, read-out: IC50): 5 µM
LD50 (EOC-20 cells; Table V): Nontoxic

c1cc2c(cc1[C@H]1OC[C@H]3[C@@H]1CO[C@@H]3c1ccc3c(c1)OCO3)OCO2 [Sesamin, sesamin]
IC50 [1, 3]: 42 µM
LD50 (EOC-20 cells; Table V): Nontoxic

C[C@@H]1C(=O)O[C@H]2C[C@@]34[C@H]5C[C@@H](C(C)(C)C)[C@]36[C@@H](OC(=O)[C@@H]6O)O[C@@]4(C(=O)O5)[C@]21O [gingkolide A]
IC50 [1, 2]: Inactive
LD50 (EOC-20 cells; [4]): nontoxic

CN(C)[C@@H]1C(O)=C(C(N)=O)C(=O)[C@@]2(O)C(O)=C3C(=O)c4c(O)cccc4[C@@](C)(O)[C@H]3C[C@@H]12 [Tetracycline]
IC50 [1, 9]: 85 µM
LD50 (EOC-20 cells): nontoxic

COc1ccc2c(c1)c(CC(=O)O)c(C)n2C(=O)c1ccc(Cl)cc1 [Indomethacin]
activity against TNFα-stimulated nitrite production [1]: weak activity
IC50 [1, 8]: 61 µM
IC50 [1, 3]: 61 µM
LD50 (EOC-20 cells; [4]): 124 μm
LD50 (EOC-20 cells; [7]): 124* μM

C(=C\c1ccccc1)/c1ccccc1 [Trans-stilbene, Trans- stilbene]
IC50 [1, 2]: Inactive
LD50 (EOC-20 cells): nontoxic

CC(C)c1ccc2c(c1)c(SC(C)(C)C)c(CC(C)(C)C(=O)O)n2Cc1ccc(Cl)cc1 [MK-886]
IC50 ([1]; Table V, read-out: IC50): 41 µM
LD50 (EOC-20 cells): 40 µM

CC(C)(C)/[N+]([O-])=C/c1ccccc1 [phenyl N tert-butyl-nitrone (PBN), phenyl N tert-butyl-nitrone]
IC50 [1, 5]: 100 µM
LD50 (EOC-20 cells; [4]): nontoxic

COC1=C(OC)C(=O)C(C/C=C(\C)CC/C=C(\C)CC/C=C(\C)CC/C=C(\C)CC/C=C(\C)CC/C=C(\C)CC/C=C(\C)CC/C=C(\C)CC/C=C(\C)CCC=C(C)C)=C(C)C1=O [coenzyme O]
IC50 [1, 2]: Inactive
LD50 (EOC-20 cells): nontoxic

COc1cccc2c1cc([N+](=O)[O-])c1c(C(=O)O)cc3c(c12)OCO3 [Aristolochic acid]
IC50 ([1]; Mus musculus): 29 µM
LD50 (EOC-20 cells; Table V): 100 µM

S=C(S)N1CCCC1 [pyrollidine dithiocarbamate (PDTC), pyrollidine dithiocarbamate]
IC50 [1, 5]: 51 µM
LD50 (EOC-20 cells; [4]): 90 μm

O=c1c(O)c(-c2ccccc2)oc2cc(O)cc(O)c12 [3,5,7-trihydroxy-flavone (galangin), 3,5,7-trihydroxy-flavone]
IC50 [1, 8]: 41 µM
LD50 (EOC-20 cells; mouse): 58 μm

O=c1cc(-c2ccccc2)oc2cc(O)ccc12 [7-OH-flavone, 7-OH-flavone]
IC50 [1, 5]: 65 µM
LD50 (EOC-20 cells; [4]): 125 μm

COc1ccc(-c2coc3cc(O)ccc3c2=O)cc1
IC50 [1, 8]: 106 µM
LD50 (EOC-20 cells; mouse): 126 μm

COc1ccc(-c2coc3cc(O)cc(O)c3c2=O)cc1 [4′-methoxy-5,7-dihydroxyisoflavone]
IC50 [1, 8]: 49 µM
LD50 (EOC-20 cells; mouse): 112 μm

CC(c1cc2ccccc2s1)N(O)C(N)=O (stereo not drawn) [Zileuton]
activity against TNFα-stimulated nitrite production [1]: approximately as effective as minocycline
IC50 [1, 6]: 105 µM
LD50 (EOC-20 cells): Nontoxic

COc1cc(/C=C/C(=O)CC(=O)/C=C/c2ccc(OC(C)=O)c(OC)c2)ccc1OC(C)=O [curcumin diacetyl ester]
IC50 ([1]; Table V, read-out: IC50): 14 µM
LD50 (EOC-20 cells; Table V): Nontoxic

O=c1c(O)c(-c2ccccc2)oc2ccccc12 [3-OH-flavone]
IC50 [1, 5]: 70 µM
LD50 (EOC-20 cells): 125 μm

CC(C)Cc1ccc(C(C)C(=O)O)cc1 (stereo not drawn) [Ibuprofen]
activity against TNFα-stimulated nitrite production [1]: weak activity
IC50 [1, 2]: Inactive
IC50 ([1]; Table V): Inactive

O=c1cc(-c2ccccc2)oc2ccccc12 [Flavone]
IC50 [1, 8]: 60 µM
LD50 (EOC-20 cells; [4]): 7 μm

O=C(/C=C/c1ccc(O)c(O)c1)c1ccc(O)cc1O [butein (2′,4′,3,4-tetrahydroxychalcone), 2′,4′,3,4-tetrahydroxychalcone]
IC50 [1, 8]: 5.1 µM
LD50 (EOC-20 cells; mouse): 77 μm

Cc1c(C)c2c(c(C)c1O)CC[C@@](C)(CCC[C@H](C)CCC[C@H](C)CCCC(C)C)O2 [alpha tocopherol]
IC50 [1, 2]: Inactive
LD50 (EOC-20 cells): nontoxic

N#CC(C#N)=C(N)/C(C#N)=C/c1cc(O)c(O)c(O)c1 [Tyrphostin 51]
IC50 [1, 2]: Inactive
LD50 (EOC-20 cells; [4]): nontoxic

O=C(/C=C/c1ccc(O)c(O)c1)O[C@H](Cc1ccc(O)c(O)c1)C(=O)O [Rosemarinic acid]
IC50 [1, 8]: 139 µM
LD50 (EOC-20 cells): nontoxic

c1ccc2c(c1)ccc1c3ccccc3ccc21 [Chrysene]
IC50 [1, 2]: Inactive
LD50 (EOC-20 cells; [4]): nontoxic

Oc1ccc(C#CC/C=C/c2ccc(O)c(O)c2)cc1O [rooperol]
IC50 ([1]; read-out: IC50): 25 µM
cytotoxicity (EOC-20 cells): nontoxic

CN(C)c1ccc(O)c2c1C[C@H]1C[C@H]3[C@H](N(C)C)C(O)=C(C(N)=O)C(=O)[C@@]3(O)C(O)=C1C2=O [Minocycline]
IC50 [1, 8]: 49 µM
